Results published in PMC7719384 (Clinical and Translational Science, 2020).
Where two headings read alike, the source gives them in different places. Each block holds one compound with its values, some of them ahead of it.

Legend:
BCRP [1] = details: in vitro; cited from earlier work
[2] = Pharmacokinetics of allopurinol and febuxostat in healthy volunteers; format: in vivo, human; details: for variation of AUC0–24 between individual participants / variation of Cmax between individual participants: 300 mg allopurinol or 120 mg febuxostat once daily
BCRP [3] = molecular target: T1, BCRP (Homo sapiens, UniProt Q9UNQ0); format: biochemical
T1 sequence (Q9UNQ0 1-655): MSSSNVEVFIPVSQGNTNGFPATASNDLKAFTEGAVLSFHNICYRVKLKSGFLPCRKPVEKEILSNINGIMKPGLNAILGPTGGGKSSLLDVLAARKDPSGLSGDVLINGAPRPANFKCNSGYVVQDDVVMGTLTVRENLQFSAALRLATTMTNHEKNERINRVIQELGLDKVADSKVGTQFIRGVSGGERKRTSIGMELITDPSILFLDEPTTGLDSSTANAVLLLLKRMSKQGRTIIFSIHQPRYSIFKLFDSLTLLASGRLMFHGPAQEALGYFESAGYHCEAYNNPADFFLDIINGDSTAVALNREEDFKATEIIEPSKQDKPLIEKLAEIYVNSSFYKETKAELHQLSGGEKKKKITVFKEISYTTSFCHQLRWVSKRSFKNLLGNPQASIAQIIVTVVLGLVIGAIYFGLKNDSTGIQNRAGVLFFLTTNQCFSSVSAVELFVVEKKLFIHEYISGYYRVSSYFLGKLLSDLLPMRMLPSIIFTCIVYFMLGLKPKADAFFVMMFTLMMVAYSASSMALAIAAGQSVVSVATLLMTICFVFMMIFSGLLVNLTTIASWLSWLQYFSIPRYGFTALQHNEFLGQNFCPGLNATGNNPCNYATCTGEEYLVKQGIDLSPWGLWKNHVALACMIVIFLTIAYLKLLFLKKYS

[4] = format: in vivo, human; details: rosuvastatin 10 mg; for AUC(0-inf) / half-life: plasma; for AUC(0-inf): AUC0–∞; for half-life: t ½
[5] = cited from earlier work
OATP1B1 = details: in vitro; cited from earlier work
OATP2B1 = details: in vitro; cited from earlier work
OATP1B3 = details: in vitro; cited from earlier work
CYP2C8 = details: in vitro; cited from earlier work
CYP2C19 = details: in vitro; cited from earlier work
CYP2D6 = details: in vitro; cited from earlier work
CYP3A4 = details: in vitro; cited from earlier work
[6] = patients with established cardiovascular disease; cited from earlier work
[7] = system: breast cancer resistance protein (BCRP; encoded by ABCG2); details: in vitro; cited from earlier work
CYP1A2 = details: in vitro; cited from earlier work
[8] = in vivo in humans; cited from earlier work
[9] = in vivo in humans; cited from earlier work; remark: listed apart in the source
[10] = mice; cited from earlier work
CYP2C9 = details: in vitro; cited from earlier work
[11] = cited from earlier work; remark: listed apart in the source
[12] = in vivo in humans; cited from earlier work; remark: listed apart in the source
[13] = 120 mg febuxostat once daily vs placebo
[14] = human, oral, allopurinol phase (300 mg once daily days 1–7), geometric mean (geometric CV)
[15] = human, oral, febuxostat phase (120 mg once daily days 4–7), geometric mean (geometric CV)

variation of AUC0–24 between individual participants [2]: 4.7 fold | variation of Cmax between individual participants [2]: 1.8 fold | AUC(0-t) ([2]; human, plasma, oral, 300 mg): 5700 ng·h/mL | Cmax ([2]; human, plasma, oral, 300 mg): 2000 ng/mL | IC50 (BCRP [3]): > 200000 nM | effect on the pharmacokinetics of rosuvastatin ([4]; 300 mg allopurinol once daily for 7 days vs placebo): no statistically significant effect
Structure (SMILES): Oc1ncnc2[nH]ncc12 [allopurinol]
inhibition of BCRP (BCRP [1]): have not inhibited

Structure (SMILES): CC1=NN(c2ccc(C)c(C)c2)C(=O)/C1=N\Nc1cccc(-c2cccc(C(=O)O)c2)c1O [eltrombopag]
increase of rosuvastatin AUC [5]: 1.6 fold | inhibition of OATP1B1 (OATP1B1): inhibits | inhibition of OATP2B1 (OATP2B1): inhibits | inhibition of OATP1B3 (OATP1B3): inhibits

Structure (SMILES): Cc1nc(-c2ccc(OCC(C)C)c(C#N)c2)sc1C(=O)O [febuxostat]
inhibition of CYP2C8 (CYP2C8): weak inhibitor | inhibition of CYP2C19 (CYP2C19): does not inhibit | inhibition of CYP2D6 (CYP2D6): weak inhibitor | variation of AUC0–24 between individual participants [2]: 3.0 fold | variation of Cmax between individual participants [2]: 5.0 fold | increase of AUC0–24 in individuals homozygous for SLCO1B1 c.521T>C ([2]; compared with the noncarriers and one heterozygote, data not shown, preliminary finding): 1.8 fold | AUC(0-t) ([2]; human, plasma, oral, 120 mg): 12300 ng·h/mL | Cmax ([2]; human, plasma, oral, 120 mg): 4300 ng/mL | half-life ([2]; human, plasma, oral, 120 mg): 360 min | inhibition of CYP3A4 (CYP3A4): does not inhibit | all-cause and cardiovascular mortality compared with allopurinol [6]: increases | inhibition of BCRP mediated transport of urate [7]: strongly inhibit | IC50 (BCRP [3]): 350 nM | inhibition of CYP1A2 (CYP1A2): does not inhibit | effect on Clrenal of rosuvastatin [4, 13]: remained unaffected | effect on t ½ of rosuvastatin [4, 13]: remained unaffected | effect on the pharmacokinetics of rosiglitazone [8]: no effect | increase of the AUC of desipramine [9]: 12% | exposure to the BCRP substrate sulfasalazine [10]: markedly increase | inhibition of CYP2C9 (CYP2C9): does not inhibit

Structure (SMILES): O=c1[nH]c(=O)c2c[nH]nc2[nH]1 [oxypurinol]
inhibition of BCRP (BCRP [1]): have not inhibited

Structure (SMILES): O=C(O)C[C@H](O)C[C@H](O)/C=C/c1c(C2CC2)nc2ccccc2c1-c1ccc(F)cc1 [pitavastatin]
effect of the ABCG2 c.421C>A variant on AUC [11]: no significant effect

Structure (SMILES): CC[C@H](C)C(=O)O[C@H]1C[C@H](O)C=C2C=C[C@H](C)[C@H](CC[C@@H](O)C[C@@H](O)CC(=O)O)[C@H]21 [pravastatin]
effect of the ABCG2 c.421C>A variant on AUC [11]: no significant effect

CL renal ([4]; human, plasma and urine, oral, Clrenal, allopurinol phase (300 mg once daily days 1–7), geometric mean (geometric CV)): 225 mL/min | AUC(0-inf) [4, 14]: 53.5 ng·h/mL | AUC(0-inf) [4, 15]: 82.5 ng·h/mL | half-life [4, 14]: 654 min | half-life [4, 15]: 378 min | AUC0–∞, allopurinol phase to placebo phase ratio (90% CI) ([4]; geometric mean ratio): 1.26 (0.98–1.61); P = 0.13 | AUC0–∞, febuxostat phase to placebo phase ratio (90% CI) ([4]; geometric mean ratio): 1.93 (1.51–2.48); P = 0.001 | Clrenal, allopurinol phase to placebo phase ratio (90% CI) ([4]; geometric mean ratio): 0.86 (0.65–1.14); P = 0.36 | Clrenal, febuxostat phase to placebo phase ratio (90% CI) ([4]; geometric mean ratio): 0.82 (0.58–1.14); P = 0.30 | Cmax, allopurinol phase to placebo phase ratio (90% CI) ([4]; geometric mean ratio): 1.22 (1.02–1.47); P = 0.08 | Cmax, febuxostat phase to placebo phase ratio (90% CI) ([4]; geometric mean ratio): 2.13 (1.76–2.58); P = 5 × 10^−5 | t ½, allopurinol phase to placebo phase ratio (90% CI) ([4]; geometric mean ratio): 1.72 (1.03–2.85); P = 0.08 | t ½, febuxostat phase to placebo phase ratio (90% CI) ([4]; geometric mean ratio): 1.00 (0.75–1.33); P = 0.99
Structure (SMILES): CC(C)c1nc(N(C)S(C)(=O)=O)nc(-c2ccc(F)cc2)c1/C=C/[C@@H](O)C[C@@H](O)CC(=O)O [rosuvastatin]
Ae, amount excreted into urine ([4]; allopurinol phase (300 mg once daily days 1–7), geometric mean (geometric CV)): 0.45 (101%) mg | Ae, allopurinol phase to placebo phase ratio (90% CI) ([4]; geometric mean ratio): 0.99 (0.69–1.43); P = 0.98 | Ae, febuxostat phase to placebo phase ratio (90% CI) ([4]; geometric mean ratio): 1.76 (1.16–2.66); P = 0.03 | increase of AUC by homozygosity for SLCO1B1 c.521T>C [12]: 1.7–2.2 fold | increase of Cmax by homozygosity for SLCO1B1 c.521T>C [12]: 1.8–2.7 fold

Structure (SMILES): CCC(C)(C)C(=O)O[C@H]1C[C@@H](C)C=C2C=C[C@H](C)[C@H](CC[C@@H](O)C[C@@H](O)CC(=O)O)[C@H]21 [simvastatin acid]
effect of the ABCG2 c.421C>A variant on AUC [11]: no significant effect
